From patent US11826375B2, “Phosphinic amide prodrugs of tenofovir” (Merck Sharp & Dohme LLC, priority 2018, dated 2023)

Test system: HIV-1
Assay: Human PBMC based HIV-1 replication assay
Assay type: cell-based
Settings: Human immunodeficiency virus 1, PBMC, PHA-activated human PBMCs, 24 h preincubation with compound, infected with GFP-encoding HIV-1 construct
Protocol: Assessing Antiviral Potency in a Human PBMC Based HIV-1 Replication Assay
The antiviral activity of the tenofovir prodrugs of the Examples herein was assessed in a human peripheral blood mononuclear cell (PBMC) based HIV-1 replication assay and performed as follows. Human PBMCs were treated with PHA ([…]) in RPMI 1640 medium containing 10% heat inactivated FBS for 2 to 3 days. Compound plates were prepared by dispensing compounds dissolved in DMSO into wells of 384 well poly-D-lysine-coated plates (0.2 μl/well) using an ECHO acoustic dispenser. Each compound was tested in a 10-point serial 3-fold dilution (typical final concentrations: 5.0 μM-0.1 nM). Controls included no inhibitor (DMSO only) and a combination of three antiviral agents (efavirenz, indinavir, an in-house integrase strand transfer inhibitor at final concentrations of 4 μM each). PHA-activated human PBMCs were added to the compound plates and incubated for 24 hours at 37° C./5% CO2/90% relative humidity. The PBMCs were then infected with an HIV-1 construct that encodes Green Fluorescence Protein (GFP) and the infected cells were incubated at 37° C./5% CO2/90% relative humidity for additional 24 hours.
Infected cells were quantified by counting the number of green cells in each well using an Acumen eX3 scanner. IC50 values were determined by non-linear 4-parameter curve fitting.
Compound `CCCOC(=O)C(C)(C)NP(=O)(CO[C@H](C)Cn1cnc2c(N)ncnc21)C(C#N)C(=O)OC(C)C` (stereo partly drawn) [Example 1, Propyl 2-((((R)-1-(6-amino-9H-purin-9-yl)propan-2-yloxy)methyl)(1-cyano-2-isopropoxy-2-oxoethyl)phosphorylamino)-2-methylpropanoate] has an IC50 of 1520 nM.
For `CCCOC(=O)C(C)(C)NP(=O)(CO[C@H](C)Cn1cnc2c(N)ncnc21)CC(=O)OC(C)(C)C` (stereo partly drawn) [Example 8, Propyl 2-((((R)-1-(6-amino-9H-purin-9-yl)propan-2-yloxy)methyl)(2-tert-butoxy-2-oxoethyl)phosphorylamino)-2-methylpropanoate], the IC50 was greater than 2100 nM.
In the case of `CCCOC(=O)C(C)(C)NP(=O)(CO[C@H](C)Cn1cnc2c(N)ncnc21)CC(=O)OC(C)C` (single isomer, unassigned) [Example 3A], the IC50 is reported as 189 nM.
With `CCCOC(=O)C(C)(C)NP(=O)(CC#N)CO[C@H](C)Cn1cnc2c(N)ncnc21` (stereo partly drawn) [Example 4, Propyl 2-((((R)-1-(6-amino-9H-purin-9-yl)propan-2-yloxy)methyl)(cyanomethyl)phosphorylamino)-2-methylpropanoate] the IC50 was greater than 2100 nM.
Compound `CCCOC(=O)C(C)(C)NP(=O)(CO[C@H](C)Cn1cnc2c(N)ncnc21)Cc1ccccc1` (stereo partly drawn) [Example 9, Propyl 2-((((R)-1-(6-amino-9H-purin-9-yl)propan-2-yloxy)methyl)(benzyl)phosphorylamino)-2-methylpropanoate] has an IC50 of 965 nM.
`CCCOC(=O)C(C)(C)NP(=O)(CO[C@H](C)Cn1cnc2c(N)ncnc21)C(C#N)C#N` (single isomer, unassigned) [Example 6A] showed an IC50 greater than 2100 nM.
With `CCCOC(=O)C(C)(C)NP(=O)(CO[C@H](C)Cn1cnc2c(N)ncnc21)C(C(=O)OC(C)C)c1ccccc1` (stereo partly drawn) [Example 5, Propyl 2-((((R)-1-(6-amino-9H-purin-9-yl)propan-2-yloxy)methyl)(2-isopropoxy-2-oxo-1-phenylethyl)phosphorylamino)-2-methylpropanoate] the IC50 was 58.8 nM.

Same assay, conditions: PHA-activated human PBMCs, 24 h preincubation with compound, infected with GFP-encoding HIV-1 construct
With `CCCOC(=O)C(C)(C)NP(=O)(CO[C@H](C)Cn1cnc2c(N)ncnc21)C(C#N)C#N` (single isomer, unassigned) [Example 6B] the IC50 was greater than 2100 nM.
Compound `CCCOC(=O)C(C)(C)NP(=O)(CO[C@H](C)Cn1cnc2c(N)ncnc21)CC(=O)N(CC)CC` (single isomer, unassigned) [Example 7A] has an IC50 of 931 nM.
`CCCOC(=O)C(C)(C)NP(=O)(CO[C@H](C)Cn1cnc2c(N)ncnc21)CC(=O)OC(C)C` (single isomer, unassigned) [Example 3B] gave an IC50 of 226 nM.
`CCCOC(=O)C(C)(C)NP(=O)(CO[C@H](C)Cn1cnc2c(N)ncnc21)CC(=O)N(CC)CC` (single isomer, unassigned) [Example 7B] gave an IC50 greater than 2100 nM.
`CCCOC(=O)C(C)(C)NP(=O)(CO[C@H](C)Cn1cnc2c(N)ncnc21)C(C(=O)OC(C)C)C(=O)OC(C)C` (single isomer, unassigned) [Example 2A] gave an IC50 of 73.9 nM.
`CCCOC(=O)C(C)(C)NP(=O)(CO[C@H](C)Cn1cnc2c(N)ncnc21)C(C(=O)OC(C)C)C(=O)OC(C)C` (single isomer, unassigned) [Example 2B] showed an IC50 of 6.8 nM.

Test system: not listed separately
Assay: Prodrug stability assay in bio-relevant media (Pancreatin solution in FaSSIF)
Assay type: in vitro ADME
Settings: HPLC peak area of prodrug at 5 h / 0 h, 0.5 mg/mL Pancreatin in FaSSIF, 37° C.
Protocol: Prodrug Stability Assay in Bio-Relevant Media
The following assay was employed to evaluate the stability of the prodrugs in simulated gastrointestinal tract conditions. Preparation of fasted state simulated intestinal fluid (FaSSIF) using Phares SIF Powder was carried out according to protocols from Phare Drug Delivery AG (Baselland, Switzerland). For sample preparation, 10 μL stock solutions (10 mM) of prodrug substance in DMSO was added to 990 μL of 0.5 mg/mL Pancreatin solution (Fisher CAS #8049-47-6) in FaSSIF. Two samples were prepared for each compound. If the sample was a clear solution, it was directly analyzed by HPLC. If the sample was not clear, the sample was diluted with 100% MeCN, maintained at 37° C. and observed 5 h later. If the sample was clear, HPLC analysis was directly performed. If the sample was still not clear, the sample was diluted with 100% ACN and assayed by HPLC. All the samples were vortexed for 3 min and observed before injection. For the diluted samples, the area is multiplied by a dilution factor when the data is analyzed. The analysis was carried out with an Agilent 1100 series HPLC with autosampler. The column was a Poroshell 120 EC-C18, 4.6×50 mm, 2.7 μm. The flow rate was 1.8 mL/min, and the injection volume was 5 or 10 μL. UV detection was in the range 210-400 nm. […]
For `CCCOC(=O)C(C)(C)NP(=O)(CO[C@H](C)Cn1cnc2c(N)ncnc21)C(C(=O)OC(C)C)C(=O)OC(C)C` (single isomer, unassigned) [Example 2B], the “GI Tract stability” value was 87.2%.
